Values joined by “and” are separate entries in the source; they are usually repeats but may differ in a detail not shown here. Identical values can stand only once.
Legend:
[1] = test system: nuclear translocation of bFGF in HUVE cells; assay: Nuclear translocation of 125I-bFGF in HUVE cells; format: cell-based, human; details: for bFGF Counts (nuclear fraction): 125I-bFGF 50 ng/ml, 0 μM: 18300 ± 200
Experimental: (§1) Inhibition of nuclear translocation of angiogenic factors in HUVE cells was performed in the following manner. […] The cell pellet was washed once with PBS and lysed with 0.5% triton X-100 in PBS. […] Radioactivity in the nuclear fraction was determined with a gamma counter.

[2] = test system: chorioallantoic membrane (CAM) of chick embryos; assay: CAM assay, aFGF-induced angiogenesis; format: in vivo; details: for % Positive: aFGF alone 73, water 21
Experimental: (§2) Angiogenesis was measured on the CAM by the method of Knighton et al. (Knighton et al., 1977, Br. J. Cancer 35:347-356) essentially as described (Fett et al., 1985, Biochemistry 24:5480-5486). Fertilized chicken eggs were kept at 18° C. for 2 days and then incubated in a humidified environment at 37° C. for 3 days. Albumin was aspirated from the embryos and after 24 hours, a “window” was cut through the shell and covered with clear tape. […] After 48-68 hours at 37° C., the growth of blood vessels was observed microscopically and recorded as either positive or negative. A positive response (i.e., an angiogenic response) has a typical “spokewheel” appearance.

[3] = test system: chorioallantoic membrane (CAM) of chick embryos; assay: CAM assay, bFGF-induced angiogenesis; format: in vivo; details: for % Positive: bFGF alone 78, water 21
Experimental: as §2

[4] = test system: nuclear translocation of aFGF in HUVE cells; assay: Nuclear translocation of 125I-aFGF in HUVE cells; format: cell-based, human; details: for aFGF Counts (nuclear fraction): 125I-aFGF 50 ng/ml, 0 μM: 7800 ± 100
Experimental: as §1

[5] = test system: nuclear translocation of EGF in HUVE cells; assay: Nuclear translocation of 125I-EGF in HUVE cells; format: cell-based, human; details: for EGF Counts (nuclear fraction): 125I-EGF 50 ng/ml, 0 μM: 140 ± 20
Experimental: as §1

[6] = test system: chorioallantoic membrane (CAM) of chick embryos; assay: CAM assay, angiogenin-induced angiogenesis; format: in vivo; details: for % Positive (angiogenic response): angiogenin alone 55, water 20
Experimental: as §2

HUVE cells [7] = assay: EGF-induced proliferation of HUVE cells; format: cell-based, human; details: for EGF Cell No.: EGF 5 ng/ml, 48 hrs, 0 μM 5300 ± 300
Experimental: (§3) The cells were incubated at 37° C. under humidified air containing 5% CO2 for 48 hrs. […] Cell numbers were determined with a Coulter counter.

[8] = test system: chorioallantoic membrane (CAM) of chick embryos; assay: CAM assay, neomycin alone without angiogenic factor; format: in vivo
Experimental: as §2

[9] = test system: chorioallantoic membrane (CAM) of chick embryos; assay: CAM assay, EGF-induced angiogenesis; format: in vivo; details: for % Positive: EGF alone 69, water 21
Experimental: as §2

HUVE cells [10] = assay: bFGF-induced proliferation of HUVE cells, aminoglycoside antibiotics; format: cell-based, human; details: aminoglycoside 100 μM
Experimental: HUVE cells were seeded at 4×10^3 cells/cm^2 in attachment factor (Cell Systems Corp.)-coated 35 mm dishes in HE-SFM, and incubated with 1 μg/ml angiogenin in the presence or absence of inhibitors at 37° C. for 48 hr. Cell were detached by trypsinization and cell numbers were determined with a Coulter counter.
The ability of the other members of the aminoglycoside antibiotic family to inhibit bFGF-induced proliferation of HUVE cells was examined in a similar manner as for angiogenin as described in Section 6.1.1.5, above. HUVE cells, passage 9, were seeded on attachment-factor coated dishes at 50,000 cells per 35 mm dish in HE-SFM. Aminoglycoside antibiotics were added and the cells were incubated with or without […] at 37° C. for 48 hr.

[11] = test system: nuclear translocation of 125I-angiogenin in HUVE cells; assay: Nuclear translocation of 125I-angiogenin in HUVE cells
HUVE cells [12] = assay: aFGF-induced proliferation of HUVE cells; format: cell-based, human; details: for aFGF Cell No.: aFGF 10 ng/ml, 48 hrs, 0 μM: 73900 ± 2500
Experimental: as §3

With neomycin the “bFGF % Inhib. of nuclear translocation” value ([1]; neomycin 10 μM) was 13%, the “bFGF Counts (nuclear fraction)” value ([1]; neomycin 10 μM) was 15900 ± 100 cpm and the “bFGF % Inhib. of nuclear translocation” value ([1]; neomycin 50 μM) was 22%. For the same substance, the “bFGF Counts (nuclear fraction)” value ([1]; neomycin 50 μM) was 14300 ± 100 cpm, the “bFGF % Inhib. of nuclear translocation” value ([1]; neomycin 100 μM) was 26% and the “bFGF Counts (nuclear fraction)” value ([1]; neomycin 100 μM) was 13500 ± 300 cpm. For the same substance, the “bFGF % Inhib. of nuclear translocation” value ([1]; neomycin 150 μM) was 32%, the “bFGF Counts (nuclear fraction)” value ([1]; neomycin 150 μM) was 12400 ± 200 cpm and the “bFGF % Inhib. of nuclear translocation” value ([1]; neomycin 200 μM) was 40%. For the same substance, the “bFGF Counts (nuclear fraction)” value ([1]; neomycin 200 μM) was 10900 ± 100 cpm, the “% Inhibition of angiogenic activity” value ([2]; aFGF 10 ng + neomycin 20 ng) was 71% and the Positive eggs ([2]; aFGF 10 ng + neomycin 20 ng, 14 total eggs) was 5. For the same substance, the “% Positive” value ([2]; aFGF 10 ng + neomycin 20 ng) was 36%, the “% Inhibition of angiogenic activity” value ([2]; aFGF 10 ng + neomycin 200 ng) was 75% and the Positive eggs ([2]; aFGF 10 ng + neomycin 200 ng, 47 total eggs) was 16. The “% Positive” value ([2]; aFGF 10 ng + neomycin 200 ng) was 32% and 34%, the “dosage that inhibited aFGF-induced angiogenesis” value ([2]; in vivo) was “about 200 ng per embryo” and the “% Inhibition of angiogenic activity” value ([3]; bFGF 10 ng + neomycin 20 ng) was 58%. For the same substance, the Positive eggs ([3]; bFGF 10 ng + neomycin 20 ng, 33 total eggs) was 15, the “% Positive” value ([3]; bFGF 10 ng + neomycin 20 ng) was 45% and the “% Inhibition of angiogenic activity” value ([3]; bFGF 10 ng + neomycin 200 ng) was 81%. For the same substance, the Positive eggs ([3]; bFGF 10 ng + neomycin 200 ng, 38 total eggs) was 12, the “% Positive” value ([3]; bFGF 10 ng + neomycin 200 ng) was 34% and 32% and the “dosage that inhibited bFGF-induced angiogenesis” value ([3]; in vivo) was “about 200 ng per embryo”. For the same substance, the “aFGF % Inhib. of nuclear translocation” value ([4]; neomycin 10 μM) was 15%, the “aFGF Counts (nuclear fraction)” value ([4]; neomycin 10 μM) was 6600 ± 100 cpm and the “aFGF % Inhib. of nuclear translocation” value ([4]; neomycin 50 μM) was 26%. The “aFGF Counts (nuclear fraction)” value ([4]; neomycin 50 μM) was 5800 ± 100 cpm, the “aFGF % Inhib. of nuclear translocation” value ([4]; neomycin 100 μM) was 32% and the “aFGF Counts (nuclear fraction)” value ([4]; neomycin 100 μM) was 5300 ± 100 cpm. For the same substance, the “aFGF % Inhib. of nuclear translocation” value ([4]; neomycin 150 μM) was 38%, the “aFGF Counts (nuclear fraction)” value ([4]; neomycin 150 μM) was 4800 ± 100 cpm and the “aFGF % Inhib. of nuclear translocation” value ([4]; neomycin 200 μM) was 43%. The “aFGF Counts (nuclear fraction)” value ([4]; neomycin 200 μM) was 4500 ± 200 cpm, the “EGF % Inhib. of nuclear translocation” value ([5]; neomycin 10 μM) was 0% and the “EGF Counts (nuclear fraction)” value ([5]; neomycin 10 μM) was 140 ± 20 cpm. The “EGF % Inhib. of nuclear translocation” value ([5]; neomycin 50 μM) was 0%, the “EGF Counts (nuclear fraction)” value ([5]; neomycin 50 μM) was 140 ± 20 cpm and the “EGF % Inhib. of nuclear translocation” value ([5]; neomycin 100 μM) was 7%. The “EGF Counts (nuclear fraction)” value ([5]; neomycin 100 μM) was 130 ± 30 cpm, the “EGF % Inhib. of nuclear translocation” value ([5]; neomycin 150 μM) was 14% and the “EGF Counts (nuclear fraction)” value ([5]; neomycin 150 μM) was 120 ± 10 cpm. The “EGF % Inhib. of nuclear translocation” value ([5]; neomycin 200 μM) was 29%, the “EGF Counts (nuclear fraction)” value ([5]; neomycin 200 μM) was 100 ± 20 cpm and the “dose that abolishes the angiogenic activity of angiogenin” value ([6]; angiogenin 10 ng) was 20 ng per egg. For the same substance, the “% Positive (angiogenic response)” value ([6]; angiogenin 10 ng + neomycin 4 ng) was 40%, the “% Positive (angiogenic response)” value ([6]; angiogenin 10 ng + neomycin 20 ng) was 20% and the “% Positive (angiogenic response)” value ([6]; angiogenin 10 ng + neomycin 200 ng) was 25%. The “EGF Inhib. % of cell proliferation” value (HUVE cells [7]; neomycin 25 μM) was 17%, the “EGF Cell No.” value (HUVE cells [7]; neomycin 25 μM) was 46700 ± 600 and the “EGF Inhib. % of cell proliferation” value (HUVE cells [7]; neomycin 50 μM) was 35%. For the same substance, the “EGF Cell No.” value (HUVE cells [7]; neomycin 50 μM) was 41700 ± 600, the “EGF Inhib. % of cell proliferation” value (HUVE cells [7]; neomycin 100 μM) was 59% and the “EGF Cell No.” value (HUVE cells [7]; neomycin 100 μM) was 35700 ± 1100. For the same substance, the “EGF Inhib. % of cell proliferation” value (HUVE cells [7]; neomycin 150 μM) was 71%, the “EGF Cell No.” value (HUVE cells [7]; neomycin 150 μM) was 32800 ± 200 and the “EGF Inhib. % of cell proliferation” value (HUVE cells [7]; neomycin 200 μM) was 100%. For the same substance, the “EGF Cell No.” value (HUVE cells [7]; neomycin 200 μM) was 26000 ± 900, the IC50 (HUVE cells [7]; read-out: IC50, EGF-induced proliferation of endothelial cells) was about 100 µM and the “induction of angiogenesis by neomycin itself” value ([8]; about 5 to about 50 μM (20 to 200 ng in 5 μl)) was “does not induce angiogenesis”. The Positive eggs ([8]; neomycin 20 ng alone, 50 total eggs) was 10, the “% Positive” value ([8]; neomycin 20 ng alone, water 20-21) was 20% and the Positive eggs ([8]; neomycin 200 ng alone, 29 total eggs) was 6. For the same substance, the “% Positive” value ([8]; neomycin 200 ng alone, water 20-21) was 21%, the Positive eggs ([8]; neomycin 1000 ng alone, 13 total eggs) was 3 and the “% Positive” value ([8]; neomycin 1000 ng alone, water 21) was 23%. The “% Inhibition of angiogenic activity” value ([9]; EGF 10 ng + neomycin 20 ng) was 19%, the Positive eggs ([9]; EGF 10 ng + neomycin 20 ng, 15 total eggs) was 9 and the “% Positive” value ([9]; EGF 10 ng + neomycin 20 ng) was 60%. The “% Inhibition of angiogenic activity” value ([9]; EGF 10 ng + neomycin 200 ng) was 81%, the Positive eggs ([9]; EGF 10 ng + neomycin 200 ng, 30 total eggs) was 9 and the “% Positive” value ([9]; EGF 10 ng + neomycin 200 ng) was 30%. For the same substance, the “dosage that inhibited EGF-induced angiogenesis” value ([9]; in vivo) was “about 200 ng per embryo”, the “% Inhibition of bFGF-induced cell proliferation” value (HUVE cells [10]; bFGF 10 ng/ml) was 71% and the “bFGF (10 ng/ml) Cell Numbers” value (HUVE cells [10]; bFGF 10 ng/ml, 48 hr, control 99000 ± 1000) was 68400 ± 800. For the same substance, the “Control (cell number without bFGF)” value (HUVE cells [10]; no bFGF, 48 hr, control 61300 ± 500) was 58000 ± 1500, the “% inhibition of nuclear translocation of angiogenin” value ([11]; inhibitor 10 μM, 125I-angiogenin 1 μg/ml 30 min) was 42% and the “Nuclear 125I-angiogenin” value ([11]; inhibitor 100 μM, 37° C. 30 min, 125I-angiogenin 1 μg/ml 30 min, control 3090 ± 260) was 1230 ± 60 cpm. For the same substance, the “125I-angiogenin accumulated in the nucleus, % of control” value ([11]; neomycin 500 μM) was 14%, the “Nuclear accumulated 125I-angiogenin” value ([11]; neomycin 500 μM, control 3090±260) was 420±100 cpm and the IC50 ([11]; read-out: IC50, angiogenin nuclear translocation, HUVE cells) was about 50 µM. The “aFGF Inhib. % of cell proliferation” value (HUVE cells [12]; neomycin 25 μM) was 25%, the “aFGF Cell No.” value (HUVE cells [12]; neomycin 25 μM) was 60000 ± 400 and the “aFGF Inhib. % of cell proliferation” value (HUVE cells [12]; neomycin 50 μM) was 42%. For the same substance, the “aFGF Cell No.” value (HUVE cells [12]; neomycin 50 μM) was 51300 ± 400, the “aFGF Inhib. % of cell proliferation” value (HUVE cells [12]; neomycin 100 μM) was 50% and the “aFGF Cell No.” value (HUVE cells [12]; neomycin 100 μM) was 46700 ± 800. For the same substance, the “aFGF Inhib. % of cell proliferation” value (HUVE cells [12]; neomycin 150 μM) was 63%, the “aFGF Cell No.” value (HUVE cells [12]; neomycin 150 μM) was 41000 ± 1000 and the “aFGF Inhib. % of cell proliferation” value (HUVE cells [12]; neomycin 200 μM) was 68%. For the same substance, the “aFGF Cell No.” value (HUVE cells [12]; neomycin 200 μM) was 37500 ± 200 and the IC50 (HUVE cells [12]; read-out: IC50, aFGF-induced proliferation of endothelial cells) was about 100 µM.

— patent US6482802B1 (Endowment for Research in Human Biology, Inc., priority 1998, dated 2002)
